In ChEMBL document CHEMBL5113406, “Structure-based discovery and development of novel O-GlcNAcase inhibitors for the treatment of Alzheimer's disease” (Eur J Med Chem, 2022):
The source made the active and inactive calls. No cut-off for these calls is given here.

Key:
[1] = Cytotoxicity against mouse HT-22 cells assessed as cell viability at 10 uM after 18 hrs by MTT assay; type: toxicity, cell-based; details: read-out: Activity
[2] = target: T1, Hexosaminidase D (Homo sapiens) (UniProt Q8WVB3); assay: Inhibition of human recombinant beta-hexosaminidase at 10 uM pretreated with compound followed by 4-nitrophenyl Nacetyl-beta-D-glucosaminide substrate addition by fluorometer
T1 sequence (whole entry): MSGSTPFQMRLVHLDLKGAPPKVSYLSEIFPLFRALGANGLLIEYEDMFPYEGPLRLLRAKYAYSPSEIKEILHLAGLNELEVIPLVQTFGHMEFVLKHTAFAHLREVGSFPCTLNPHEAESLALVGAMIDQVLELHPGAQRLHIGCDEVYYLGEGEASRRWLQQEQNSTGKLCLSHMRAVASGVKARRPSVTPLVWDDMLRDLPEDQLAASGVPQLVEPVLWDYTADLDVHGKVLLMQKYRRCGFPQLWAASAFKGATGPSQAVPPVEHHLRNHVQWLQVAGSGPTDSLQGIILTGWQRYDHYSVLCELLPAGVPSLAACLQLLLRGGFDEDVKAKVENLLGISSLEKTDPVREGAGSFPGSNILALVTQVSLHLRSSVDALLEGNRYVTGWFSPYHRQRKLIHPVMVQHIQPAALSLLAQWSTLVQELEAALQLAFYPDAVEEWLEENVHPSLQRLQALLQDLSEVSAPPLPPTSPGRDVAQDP

[3] = target: T2, Protein O-GlcNAcase (Homo sapiens, UniProt O60502); assay: Inhibition of human recombinant OGA pretreated for 20 mins followed by 4-Methylumbelliferyl N-acetyl-(3-D-glucosaminide substrate addition by fluorometer
T2 sequence (O60502 whole entry): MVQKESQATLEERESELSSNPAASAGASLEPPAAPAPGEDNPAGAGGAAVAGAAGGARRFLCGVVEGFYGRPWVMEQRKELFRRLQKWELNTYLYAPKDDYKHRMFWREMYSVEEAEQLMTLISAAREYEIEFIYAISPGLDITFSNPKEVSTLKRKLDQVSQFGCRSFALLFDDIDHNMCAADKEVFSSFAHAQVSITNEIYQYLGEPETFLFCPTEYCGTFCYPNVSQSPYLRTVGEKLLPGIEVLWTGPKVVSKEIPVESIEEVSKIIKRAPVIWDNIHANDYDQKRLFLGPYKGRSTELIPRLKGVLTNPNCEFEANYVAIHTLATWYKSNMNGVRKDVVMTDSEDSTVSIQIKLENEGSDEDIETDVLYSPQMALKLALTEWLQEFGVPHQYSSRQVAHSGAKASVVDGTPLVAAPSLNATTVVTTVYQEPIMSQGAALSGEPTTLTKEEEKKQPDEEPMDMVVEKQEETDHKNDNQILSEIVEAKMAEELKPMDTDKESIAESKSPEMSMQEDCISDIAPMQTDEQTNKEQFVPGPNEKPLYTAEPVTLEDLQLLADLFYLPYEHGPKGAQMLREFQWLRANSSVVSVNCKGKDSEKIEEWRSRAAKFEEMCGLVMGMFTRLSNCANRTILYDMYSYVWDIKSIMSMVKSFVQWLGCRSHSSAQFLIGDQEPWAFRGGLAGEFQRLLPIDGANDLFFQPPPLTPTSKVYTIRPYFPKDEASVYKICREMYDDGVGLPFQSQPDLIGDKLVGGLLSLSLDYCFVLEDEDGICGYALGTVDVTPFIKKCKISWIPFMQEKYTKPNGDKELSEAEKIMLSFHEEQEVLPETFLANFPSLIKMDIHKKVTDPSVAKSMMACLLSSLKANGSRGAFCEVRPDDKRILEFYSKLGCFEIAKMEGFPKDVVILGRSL

[4] = AUClast in ICR mouse brain at 20 mg/kg, ip after 24 hrs by LC-MS/MS analysis; type: ADME, organism-based; parameters: time 24 hrs, dose 20 mg/kg, route ip
[5] = AUClast in ICR mouse plasma at 20 mg/kg, ip after 24 hrs by LC-MS/MS analysis; type: ADME, organism-based; parameters: dose 20 mg/kg, time 24 hrs, route ip
[6] = test system: Mus musculus; assay: Neuroprotective activity against amyloid beta (1 to 42)-induced cognitive impairement in ICR mouse assessed as spontaneous alteration at 20 mg/kg, ip for 3 days by Y-maze test; type: functional, organism-based; details: time 3.0 day
[7] = AUCt in ICR mouse plasma at 20 mg/kg, ip after 24 hrs by LC-MS/MS analysis; type: ADME, organism-based; parameters: time 24 hrs, dose 20 mg/kg, route ip
[8] = Half life in ICR mouse plasma at 20 mg/kg, ip after 24 hrs by LC-MS/MS analysis; type: ADME, organism-based
[9] = AUCinfinity in ICR mouse plasma at 20 mg/kg, ip after 24 hrs by LC-MS/MS analysis; type: ADME, organism-based; parameters: time 24 hrs, dose 20 mg/kg, route ip
[10] = test system: Mus musculus; assay: In vivo inhibition of OGA in amyloid-beta-induced ICR mouse assessed as decrease in 4-MUF level at 2 to 20 mg/kg, ip for 3 days by fluorescence analysis; type: functional, organism-based; details: dose 2-20 mg/kg, time 3.0 day
[11] = test system: Brain; assay: Anti-alzheimer activity in mouse model assessed as decrease in amyloid beta level in brain at 2 mg/kg, ip for 3 days by ELISA relative to control; type: functional; details: 72 h, time 3 day
[12] = Tmax in ICR mouse plasma at 20 mg/kg, ip after 24 hrs by LC-MS/MS analysis; type: ADME, organism-based
[13] = Cmax in ICR mouse plasma at 20 mg/kg, ip after 24 hrs by LC-MS/MS analysis; type: ADME, organism-based; parameters: dose 20 mg/kg, time 24 hrs, route ip
[14] = test system: Brain; assay: Anti-alzheimer activity in mouse model assessed as decrease in amyloid beta level in brain at 20 mg/kg, ip for 3 days by ELISA relative to control; type: functional; details: 72 h, time 3 day
[15] = Ratio of drug level in ICR mouse brain to plasma at 20 mg/kg, ip after 24 hrs by LC-MS/MS analysis; type: ADME, organism-based; details: brain and plasma, read-out: BPR
[16] = AUClast in ICR mouse brain at 50 mg/kg, ip after 24 hrs by LC-MS/MS analysis; type: ADME, organism-based; parameters: dose 50 mg/kg, time 24 hrs, route ip
[17] = Ratio of drug level in ICR mouse brain to plasma at 50 mg/kg, ip after 24 hrs by LC-MS/MS analysis; type: ADME, organism-based; details: brain and plasma, read-out: BPR
[18] = organism: Mus musculus; details: ICR, dose 50.0 mg/kg, route ip, time 3.0 day
[19] = test system: Brain; assay: Anti-alzheimer activity in mouse model assessed as decrease in amyloid beta level in brain at 50 mg/kg, ip for 3 days by ELISA relative to control; type: functional; details: 72 h, time 3 day
[20] = test system: Mus musculus; assay: Neuroprotective activity against amyloid beta (1 to 42)-induced cognitive impairement in ICR mouse assessed as […] spontaneous alteration at 50 mg/kg, ip for 3 days by Y-maze test; type: functional, organism-based; details: time 3.0 day
[21] = AUClast in ICR mouse plasma at 50 mg/kg, ip after 24 hrs by LC-MS/MS analysis; type: ADME, organism-based; parameters: dose 50 mg/kg, time 24 hrs, route ip

Structure (SMILES) | viability at 18 h, 10 µM [1] | inhibition [2] | IC50 [3] | further results
CC(=O)Nc1ncc(CN2CCCC(C(=O)Nc3ccc(F)cc3)C2)s1 (centres undefined) | 120% | 92.5% |  | 
CC(=O)Nc1ncc(CN2CCN(CC(=O)Nc3ccccn3)CC2)s1 |  |  | 1400 nM | 
CC(=O)Nc1ncc(CN2CCN(CC(=O)Nc3ccc(Cc4ccccc4)cc3)CC2)s1 | 140% | 101% |  | 
CC(=O)Nc1ncc(CN2CCC(C(=O)Nc3ccc(C)cc3)CC2)s1 |  |  | 300 nM | 
CC(=O)Nc1ncc(CN2CCN(CC(=O)Nc3ccc(Cc4ccccc4)cc3)CC2C)s1 (centres undefined) | 136% | 106% |  | 
CC(=O)Nc1ncc(CN2CCN(CC(=O)Nc3ccc(Cl)cc3)CC2C)s1 (centres undefined) | 111% | 92.4% |  | AUC(0-t) at 24 h [4]: 590 ng·h/mL; AUC(0-t) at 24 h [5]: 2960 ng·h/mL; Activity [6]: Active; AUC(0-t) at 24 h [7]: 4980 ng·h/mL; half-life [8]: 91.8 min; AUC(0-inf) [9]: 5210 ng·h/mL; inhibition [10]: Active; inhibition in vivo at 2 mg/kg [11]: 42%; Tmax [12]: 21.6 min; Cmax [13]: 3200 ng/mL; inhibition in vivo at 20 mg/kg [14]: 71.8%; Kp at 24 h [15]: 0.2
CC(=O)N[C@H]1/C(=N\OC(=O)Nc2ccccc2)O[C@H](CO)[C@@H](O)[C@@H]1O | 102% | 7.6% |  | 
CC(=O)Nc1ncc(CN2CCN(CC(=O)Nc3ccc(N4CCN(C(C)=O)CC4)cc3)CC2C)s1 (centres undefined) | 94.4% | 73.5% |  | 
CC(=O)Nc1ncc(CN2CCN(CC(=O)NC3CCCCC3)CC2C)s1 (centres undefined) | 123% | 101% |  | 
CC(=O)Nc1ncc(CN2CCCC(C(=O)Nc3ccccc3)C2)s1 (centres undefined) |  |  | 450 nM | 
CCNC1=N[C@@H]2[C@@H](O)[C@H](O)[C@@H](CO)O[C@@H]2S1 | 95.9% | 91.6% |  | AUC(0-t) at 24 h [16]: 590 ng·h/mL; Kp at 24 h [17]: 0.07; inhibition [18]: Active; inhibition in vivo at 50 mg/kg [19]: 62.8%; Activity [20]: Active; AUC(0-t) at 24 h [21]: 10000 ng·h/mL
CC(=O)Nc1ncc(CN2CCCC(C(=O)NC3CCCCC3)C2)s1 (centres undefined) |  |  | 230 nM | 
CC(=O)Nc1ncc(CN2CCN(CC(=O)Nc3ccccc3)CC2C)s1 (centres undefined) | 98.6% | 103% |  | 
CC(=O)Nc1ncc(CN2CCC(C(=O)Nc3ccc(F)cc3)CC2)s1 |  |  | 160 nM | 
COc1ccc(CNC(=O)C=C2CCN(Cc3cnc(NC(C)=O)s3)CC2)cc1 | 109% | 89.6% |  | 
CC(=O)Nc1ncc(CN2CCC(=CC(=O)NC3CCCCC3)CC2)s1 |  |  | 280 nM | 
